{"source": "paper PMC3955700", "about": "(Bioorganic & medicinal chemistry letters, 2013)", "system": "brain / choroid plexus uptake", "experiment": "PET imaging in cynomolgus monkey", "type": "in vivo"}
{"smiles": "Cl.O=C(Cc1ccc(OC2CCNCC2)cc1OCCF)N1CCC(N2C(=O)CCc3ccccc32)CC1", "note": "[Compound 1, 1-(1-(2-(2-(2-fluoroethoxy)-4-(piperidin-4-yloxy)phenyl)acetyl)piperidin-4-yl)-3,4-dihydroquinolin-2(1H)-one]", "values": [{"measurement": "effect of blocking on [18F]1 uptake", "setting": "5 mg/kg of 1 given 30 min prior to [18F]1", "value": "increase of overall brain activity, primarily in the region of the choroid plexus"}, {"measurement": "effect of chase on [18F]1 choroid plexus uptake", "setting": "5 mg/kg of 1 given 45 min after [18F]1", "value": "uptake within the choroid plexus was completely removed"}]}
